± gives the uncertainty stated by the source.
What was measured:
Conditions in all cases: 18 h
HEK293T-Rex ERSE-FLuc [1] = assay: EC50 for ERSE-FLuc reporter activation
Protocol: (§1)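 Dose-response of hit compounds in HEK293T-Rex cells stably expressing ERSE-FLuc or XBP1-RLuc reporters, 18 hr treatment, 1536-well; luminescence normalised to 500 nM thapsigargin (100%) and DMSO (0%), fitted to give EC50 (M) and maximal activation; '>' marks EC50 above the top tested dose (~17 µM).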

HEK293T-Rex XBP1-RLuc [2] = assay: EC50 for XBP1-RLuc reporter activation
Protocol: as §1

HEK293T-Rex ERSE-FLuc [3] = assay: maximal ERSE-FLuc activation from dose-response fit, relative to thapsigargin (% of thapsigargin); higher = stronger activation
Protocol: as §1

HEK293T-Rex XBP1-RLuc [4] = assay: maximal XBP1-RLuc activation from dose-response fit, relative to thapsigargin (% of thapsigargin); higher = stronger activation
Protocol: as §1

SMILES	EC50 for ERSE-FLuc reporter activation (HEK293T-Rex ERSE-FLuc [1]) [µM]	EC50 for XBP1-RLuc reporter activation (HEK293T-Rex XBP1-RLuc [2]) [µM]	maximal ERSE-FLuc activation (HEK293T-Rex ERSE-FLuc [3])	maximal XBP1-RLuc activation (HEK293T-Rex XBP1-RLuc [4])
NC(=O)c1c(NC(=O)/C=C/c2ccccc2)sc2c1CCCCC2	> 16.9	> 16.9	22.6 ± 3.1	3.01 ± 2.8
COc1cccc(C(=O)Nc2nc3ccc(C)cc3s2)c1	> 20.6	> 20.6	31.7 ± 6.6	10.2 ± 2.3
COc1ccccc1-c1cc(C(=O)Nc2cc(C)ccc2O)no1	> 16.9	> 16.9	25.7 ± 7.9	18 ± 2.5
CCCCCCOc1ccc(/C(C)=N/NC2=NCCN2)cc1[N+](=O)[O-]	> 16.9	> 16.9	34.7 ± 1.6	16.3 ± 1.6
N#CC1=C(N)Oc2c(ccc3ccccc23)C1c1ccccc1 (centres undefined)	> 16.9	> 16.9	15.5 ± 0.4	7.34 ± 1.6
O=C(CCCCCCC(=O)Nc1ccccc1)NO	6.58	> 16.9	132 ± 25	3.17 ± 2.9
O=C(Nc1ccccc1O)c1ccc(NS(=O)(=O)c2cccc3cccnc23)cc1	10	> 16.9	85.2 ± 7.5	21.8 ± 6.3
Cc1cnc(NC(=O)c2sc3nc4c(C)cccc4cc3c2N)s1	11.5	6.88	58.9 ± 6.1	96.9 ± 3.6
COc1ccc(Nc2nccn3c(-c4ccsc4)cnc23)cn1	> 16.9	> 16.9	23.1 ± 0.89	8.52 ± 2.1
Nc1ccc2nc(/C=C/c3ccccc3)[nH]c2c1	> 15.3	> 15.3	34.4 ± 4.7	23.8 ± 1.7
Cc1ccc(O)c(NC(=O)CSc2n[nH]c(C)c2[N+](=O)[O-])c1	5.79	> 16.9	98.8 ± 16	37.4 ± 7.3
c1ccc2cc(-c3cnnc(N4CCOCC4)n3)ccc2c1	> 16.9	> 16.9	25.2 ± 10	4.15 ± 2.7
CCCc1cc(C(=O)Nc2cc(C)ccc2O)no1	2.84	> 16.9	116 ± 9.5	30 ± 2.2
O=C(/C=C/c1ccco1)Nc1ccc(Br)cc1Cl	> 16.9	> 16.9	23.5 ± 2.5	4.5 ± 6.9
CCCCNc1ncnc2c1cnn2-c1ccc(Cl)cc1	> 19.5	> 19.5	25.4 ± 3	2.05 ± 1.1
COc1cc(/C=C/c2ccc(O)c(OC)c2)ccc1O	> 16.9	8.73	31.1 ± 6.9	72.3 ± 8.1
CCn1c(/C(C#N)=C/c2ccc(OC)cc2)nc2ccccc21	> 19.4	> 19.4	30.6 ± 6.3	5.17 ± 3
COc1ccc(-c2cnnc(N/N=C/c3ccc(O)c(O)c3)n2)cc1	14.7	16.8	54.5 ± 13	50.5 ± 3.9
Oc1ccccc1/C=N\Nc1nc2ccccc2o1	> 17.3	> 17.3	12.4 ± 3.9	19.8 ± 1.3
C=CCNC(=O)c1cc(-c2ccccc2)on1	7.45	> 16.9	99.6 ± 17	10.7 ± 4.1
O=C(N/N=C\C(Cl)=C\c1ccccc1)c1n[nH]c2c1CCCC2	> 16.9	> 16.9	19.7 ± 5.1	3.51 ± 3.7

SMILES	EC50 for ERSE-FLuc reporter activation (HEK293T-Rex ERSE-FLuc [1]) [µM]	EC50 for XBP1-RLuc reporter activation (HEK293T-Rex XBP1-RLuc [2]) [µM]	maximal ERSE-FLuc activation (HEK293T-Rex ERSE-FLuc [3])	maximal XBP1-RLuc activation (HEK293T-Rex XBP1-RLuc [4])
Cc1ccc(NC(=O)/C=C/c2ccco2)nc1	> 16.9	> 16.9	17.5 ± 3.4	7.43 ± 1.4
O=C1N/C(=C/c2ccc(O)cc2)C(=O)N1Cc1ccc(Br)cc1	> 15.8	4.02	47.9 ± 1.7	70.6 ± 14
Oc1ccc(/C=N/Nc2cccc(Cl)n2)c(O)c1	> 16.9	> 16.9	24.4 ± 4.8	33.6 ± 1.8
O=C(Nc1ccccc1O)c1ccc(C(=O)c2ccccc2)cc1	7.47	> 16.8	103 ± 3.3	15.1 ± 5.4
NC(=O)c1c(NC(=O)c2cccc3ccccc23)sc2c1CCC2	> 16.9	> 16.9	21.9 ± 5.8	23.1 ± 6.4
N#C/C(=C/c1ccc(O)c(O)c1)c1nc2ccccc2[nH]1	> 16.9	> 16.9	29 ± 5.2	20.7 ± 5.2
Oc1ccc(/C=N/Nc2cccc3cccnc23)c(O)c1	> 16.9	9.41	36.6 ± 4.9	53.6 ± 5.7
COc1ccc(C2C=C3Oc4ccccc4N=C3NN2)cc1 (centres undefined)	> 16.9	> 16.9	27 ± 2.8	14.1 ± 2.1
N#Cc1c(NC(=O)c2cccc(F)c2)sc2c1CCC2	> 16.5	> 16.5	19.5 ± 3.1	2.22 ± 1.6
Nc1cn(-c2ccccc2)nc1-c1cccs1	> 19.6	3.71	47.7 ± 4.1	156 ± 4.4
CC(=O)Oc1ccc2cc(NC(=O)c3ccc(C)cc3)c(=O)oc2c1	> 15.1	> 15.1	25.8 ± 1.6	14.6 ± 0.94
O=C(N/N=C/c1cccc(O)c1O)c1ccccn1	> 18.4	> 18.4	25.7 ± 1.9	20.3 ± 1.1
Cc1ccc(C)c(/C=N/Nc2nncc3ccccc23)c1	> 17.1	> 17.1	26.4 ± 5.4	8.33 ± 1.1
Cc1ccc(O)c(NC(=O)CCc2ccccc2)c1	4.16	> 16.9	107 ± 12	26.1 ± 0.67
Cc1nc(-c2coc3c(O)c(O)ccc3c2=O)cs1	> 16.9	> 16.9	35.2 ± 6.9	20.6 ± 1
N#CC1=C(N)Oc2c(ccc3ccccc23)C1c1ccsc1 (centres undefined)	> 18.3	> 18.3	21.2 ± 5.6	5.3 ± 5
COc1ccc(C(=O)Nc2nnc(-c3cccs3)s2)cc1	> 16.9	> 16.9	18.8 ± 1.5	1.9 ± 0.9
O=C(Nc1ccc(Cl)cn1)c1ccc(Cl)cc1Cl	> 15.2	> 15.2	22.5 ± 8.3	4.15 ± 0.98
CCCNC(=O)c1ccc2nc(-c3ccc4[nH]ccc4c3)sc2c1	> 17.4	> 17.4	13.9 ± 6.1	2.49 ± 1.2
Cc1ccc(O)c(NC(=O)c2cc(CC(C)C)on2)c1	3.94	> 16.9	89.2 ± 8	37.2 ± 9.3
